Test results from ChEMBL document CHEMBL1201862, “PubChem BioAssay data set” (2004).
Active and inactive are the calls of the source.

Tests used:
HEK293 [1] = assay: NOD1 signaling inhibitors, primary screen, cell-based, luminescence, uHTS (AID 1578); assay type: functional; conditions: Homo sapiens
HEK293 [2] = assay: cells; assay type: functional, cell-based; conditions: Homo sapiens
HEK293 [3] = assay: cells; assay type: functional, cell-based; conditions: Homo sapiens; remark: listed apart in the source
HEK293 [4] = assay: NOD2 signaling inhibitors in MDP-stimulated cells, cell-based, uHTS, luminescence (AID 2001); assay type: functional; conditions: Homo sapiens
[5] = target: DNA damage-inducible transcript 3 protein (Mus musculus, UniProt P35639); assay type: functional, Cricetulus griseus
X-box-binding protein 1 = target: T1, X-box-binding protein 1 (Homo sapiens, UniProt P17861); assay type: functional, Cricetulus griseus;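 further: confirmatory dose-response counter-screen serving a CHOP assay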
T1 sequence (P17861 whole entry): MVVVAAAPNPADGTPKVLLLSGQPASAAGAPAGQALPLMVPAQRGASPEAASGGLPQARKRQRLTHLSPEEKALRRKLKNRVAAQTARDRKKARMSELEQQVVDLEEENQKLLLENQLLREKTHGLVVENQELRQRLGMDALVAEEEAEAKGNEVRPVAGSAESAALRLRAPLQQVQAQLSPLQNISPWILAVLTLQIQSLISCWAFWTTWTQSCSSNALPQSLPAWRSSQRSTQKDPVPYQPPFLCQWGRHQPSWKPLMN

Ion channel NompC = Ion channel NompC (Danio rerio, UniProt Q7T1G6); assay: Dose response cell-based high-throughput screening assay for agonists of the transient receptor potential channel N1 (TRPN1). [Related pubchem assays (depositor defined):AID1424, AID1448]; assay type: functional
[6] = microbe, parasite or virus in culture; assay type: functional; conditions: Mycobacterium tuberculosis
Mucolipin-3 = target: T2, Mucolipin-3 (Homo sapiens, UniProt Q8TDD5); assay: Fluorescence counterscreen assay for […] agonists: dose response cell-based high-throughput screening assay to identify agonists of the transient receptor potential channel ML3 (TRPML3). [Related pubchem assays: 1424, 1448 ]; assay type: functional
T2 sequence (Q8TDD5 whole entry): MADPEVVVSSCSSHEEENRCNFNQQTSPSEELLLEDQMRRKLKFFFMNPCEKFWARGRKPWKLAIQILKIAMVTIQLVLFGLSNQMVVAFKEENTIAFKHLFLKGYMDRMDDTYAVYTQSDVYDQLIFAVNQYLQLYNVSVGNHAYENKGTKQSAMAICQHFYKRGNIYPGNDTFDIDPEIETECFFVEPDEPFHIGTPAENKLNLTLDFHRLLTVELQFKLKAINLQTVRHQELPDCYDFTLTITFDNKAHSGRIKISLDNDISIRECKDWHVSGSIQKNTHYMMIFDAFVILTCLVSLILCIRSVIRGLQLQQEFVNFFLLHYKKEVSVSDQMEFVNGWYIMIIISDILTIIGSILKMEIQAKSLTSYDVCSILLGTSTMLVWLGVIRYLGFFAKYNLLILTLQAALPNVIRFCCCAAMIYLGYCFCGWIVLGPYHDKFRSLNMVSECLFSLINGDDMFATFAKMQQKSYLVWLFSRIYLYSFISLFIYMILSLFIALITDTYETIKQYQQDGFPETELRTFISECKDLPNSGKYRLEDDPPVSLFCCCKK

[7] = target: T3, Mannose-6-phosphate isomerase (Homo sapiens, UniProt P34949); assay: PMI enzyme inhibitors, confirmation, biochemical, fluorescence intensity (AID 1535)
T3 sequence (P34949 whole entry): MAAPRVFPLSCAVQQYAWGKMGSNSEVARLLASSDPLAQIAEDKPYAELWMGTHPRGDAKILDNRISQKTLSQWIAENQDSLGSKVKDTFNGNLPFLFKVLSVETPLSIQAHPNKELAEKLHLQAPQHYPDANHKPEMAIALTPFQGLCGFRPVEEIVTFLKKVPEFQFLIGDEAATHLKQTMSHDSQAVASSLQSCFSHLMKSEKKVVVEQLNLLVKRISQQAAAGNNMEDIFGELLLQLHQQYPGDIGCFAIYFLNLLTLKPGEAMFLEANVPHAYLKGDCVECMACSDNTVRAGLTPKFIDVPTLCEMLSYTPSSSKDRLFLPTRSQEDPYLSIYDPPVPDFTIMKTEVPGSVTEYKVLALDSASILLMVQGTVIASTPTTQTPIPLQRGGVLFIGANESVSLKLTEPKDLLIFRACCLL

Phosphomannomutase 2 = Phosphomannomutase 2 (Homo sapiens, UniProt O15305); assay: Counter screen SAR assay for PMM2 inhibitors via a fluorescence intensity assay. [Related pubchem assays (depositor defined):AID1545, AID1574]
Troponin, cardiac muscle = Troponin, cardiac muscle (Homo sapiens, UniProt P19429+P45379+P63316); assay: Fluorescence-based biochemical high throughput dose response assay for activators of the calcium sensitivity of cardiac Regulated Thin Filaments (RTF). [Related pubchem assays (depositor defined):AID493008, AID493018, AID504382, AID504383]; assay type: protein-complex assay
[8] = target: T4, Replicative DNA helicase DnaB (Mycobacterium tuberculosis, UniProt P9WMR3); assay: DnaB intein splicing inhibitors, dose response, biochemical, cell-free fluorescence (AID 449749); assay type: functional
T4 sequence (P9WMR3 whole entry): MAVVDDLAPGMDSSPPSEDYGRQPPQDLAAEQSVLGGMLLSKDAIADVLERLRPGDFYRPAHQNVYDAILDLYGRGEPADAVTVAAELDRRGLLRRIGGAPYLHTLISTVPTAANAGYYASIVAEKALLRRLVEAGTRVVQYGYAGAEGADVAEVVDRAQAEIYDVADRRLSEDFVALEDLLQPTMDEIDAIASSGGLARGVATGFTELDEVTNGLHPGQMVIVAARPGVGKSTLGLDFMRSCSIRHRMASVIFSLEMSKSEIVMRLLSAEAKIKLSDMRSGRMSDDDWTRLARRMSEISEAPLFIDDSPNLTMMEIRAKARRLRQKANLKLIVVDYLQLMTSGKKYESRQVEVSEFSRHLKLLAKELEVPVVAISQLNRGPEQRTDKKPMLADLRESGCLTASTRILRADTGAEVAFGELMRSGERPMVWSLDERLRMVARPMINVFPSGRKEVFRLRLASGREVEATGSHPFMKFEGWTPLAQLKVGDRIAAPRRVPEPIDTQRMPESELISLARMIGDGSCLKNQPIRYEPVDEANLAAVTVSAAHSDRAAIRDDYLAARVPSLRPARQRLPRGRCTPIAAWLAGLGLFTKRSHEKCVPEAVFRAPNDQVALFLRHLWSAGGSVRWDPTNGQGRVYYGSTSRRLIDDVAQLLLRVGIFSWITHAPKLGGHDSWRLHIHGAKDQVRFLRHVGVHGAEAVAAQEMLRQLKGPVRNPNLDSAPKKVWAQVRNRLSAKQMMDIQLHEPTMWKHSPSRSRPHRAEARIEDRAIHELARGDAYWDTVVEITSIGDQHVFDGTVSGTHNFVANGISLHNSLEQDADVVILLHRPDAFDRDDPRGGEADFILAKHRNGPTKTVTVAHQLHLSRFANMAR

Protein RecA = target: T5, Protein RecA (Mycobacterium tuberculosis, UniProt P9WHJ3); assay: Fluorescence Cell-Free Homogeneous Dose Retest to Identify Inhibitors of RecA-Intein Splicing Activity. [Related pubchem assays (depositor defined):AID2097, AID2223, AID489010, AID492950]; assay type: functional
T5 sequence (P9WHJ3 whole entry): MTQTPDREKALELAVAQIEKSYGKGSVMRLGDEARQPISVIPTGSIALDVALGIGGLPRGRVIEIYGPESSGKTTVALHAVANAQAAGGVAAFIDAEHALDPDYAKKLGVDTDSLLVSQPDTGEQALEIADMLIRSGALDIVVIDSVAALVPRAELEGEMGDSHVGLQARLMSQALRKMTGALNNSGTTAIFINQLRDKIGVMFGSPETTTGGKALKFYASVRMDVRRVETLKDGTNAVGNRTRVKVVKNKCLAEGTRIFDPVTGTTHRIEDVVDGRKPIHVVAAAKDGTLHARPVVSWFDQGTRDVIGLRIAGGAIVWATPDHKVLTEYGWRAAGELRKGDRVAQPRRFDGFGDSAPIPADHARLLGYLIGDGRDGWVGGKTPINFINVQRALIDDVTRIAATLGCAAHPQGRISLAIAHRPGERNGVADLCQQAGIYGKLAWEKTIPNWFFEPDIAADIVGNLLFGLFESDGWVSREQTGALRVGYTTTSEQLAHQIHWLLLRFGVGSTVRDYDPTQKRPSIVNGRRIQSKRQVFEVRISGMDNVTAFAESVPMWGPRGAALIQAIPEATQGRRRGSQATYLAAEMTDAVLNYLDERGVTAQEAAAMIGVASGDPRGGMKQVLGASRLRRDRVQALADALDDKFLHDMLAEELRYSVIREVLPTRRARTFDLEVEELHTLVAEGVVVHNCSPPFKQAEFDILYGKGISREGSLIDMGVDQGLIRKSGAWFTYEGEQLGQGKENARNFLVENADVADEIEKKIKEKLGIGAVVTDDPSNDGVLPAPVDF

[9] = target: Peroxisome proliferator-activated receptor gamma/Nuclear receptor coactivator 1 (Homo sapiens, UniProt P37231); assay: (§1) TR-FRET dose response biochemical High Throughput Screening assay for agonists of the steroid receptor coactivator 1 (SRC-1) recruitment by the peroxisome proliferator-activated receptor gamma (PPAR gamma): non-selective agonists. [Related pubchem assays (depositor defined):AID1300, AID1808, AID504735, AID631]; assay type: protein assay
[10] = target: Peroxisome proliferator-activated receptor gamma/Nuclear receptor coactivator 3 (Homo sapiens, UniProt P37231); assay: as §1, with “3 (SRC-3)” for “1 (SRC-1)”, “assays: 1301 (Confirmation screen.), 1048 (Primary screen.)]” for “assays (depositor defined):AID1300, AID1808, AID504735, AID631]”; assay type: functional
[11] = target: Peroxisome proliferator-activated receptor gamma/Nuclear receptor coactivator 2 (Homo sapiens, UniProt P37231); assay: TR-FRET dose response biochemical High Throughput Screening assay for agonists of the steroid receptor coactivator 2 (SRC-2) recruitment by the peroxisome proliferator-activated receptor gamma (PPAR gamma): non-selective agonists. [Related pubchem assays: 1297, 1032 ]; assay type: functional

Structure (SMILES): O=C1NC(=O)N(Cc2ccco2)C(=O)/C1=C/C=C/c1ccco1
- EC50 (HEK293 [1]): > 20 µM (inactive)
- IC50 (HEK293 [2]): 16.2 µM (active)
- IC50 (HEK293 [3]): > 20 µM (inactive)
- IC50 (HEK293 [4]): > 20 µM (inactive)
- Absolute IC50 (CHOP) [5]: 10 µM
- Absolute IC50 (XBP1) (X-box-binding protein 1): 10 µM

Structure (SMILES): COc1cc(S(=O)(=O)NCc2ccncc2)ccc1Br
- EC50 (HEK293 [1]): 3.02 µM (active)
- IC50 (HEK293 [2]): 16.5 µM (active)
- IC50 (HEK293 [3]): > 20 µM (inactive)
- IC50 (HEK293 [4]): > 20 µM (inactive)

Structure (SMILES): C/C(=C1/C(=O)N(c2ccc([N+](=O)[O-])cc2)N=C1c1ccccc1)N(C)C
- EC50 (Ion channel NompC): 3.71 µM (active)
- CC50 [6]: 10.6 µM (active)
- EC50 (Mucolipin-3): 5.21 µM (active)

Structure (SMILES): Clc1cccc(/N=c2\ssnc2Cl)c1
- IC50 [7]: 51.1 µM (active)
- IC50 (Phosphomannomutase 2): > 100 µM (inactive)

Structure (SMILES): Cc1cccc(/C=N/NC(=O)C(C)Nc2cccc3ccccc23)n1 (stereo unspecified)
- EC50 (Troponin, cardiac muscle): 10.5 µM (inactive)
- AC50 [8]: 3.78 µM (active)
- EC50 (Protein RecA): 47.1 µM (active)

Structure (SMILES): CSc1oc(-c2ccccc2)nc1C(N)=O
- EC50 [9]: 359 µM (inactive)
- EC50 [10]: > 79.4 µM (not active)
- EC50 [11]: 60.1 µM (not active)
